Test systems include SW-620 colon; SNB-19 CNS; HT29 colon; UACC-62 melanoma; RXF 393 renal; NCI-H226 lung; EKVX NSCLC; U251 CNS; UACC-257 melanoma; HOP-62 NSCLC; CAKI-1 renal; DMS 114 small cell lung; DLD-1 colon; SNB-78 CNS.
Test in all cases: inhibition of tumour cell growth, NCI panel, 48 h

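These data come from cells grown in 96-well plates and exposed to compound for 48 hours at five concentrations. GI50 marks 50% less growth. TGI denotes the concentration required for complete inhibition of growth.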

Our source for the TGI and GI50 values is PubChem BioAssay (NCI).

As to `NS(=O)(=O)c1ccc(N=Nc2nc3[nH]cnc(=S)c3[nH]2)cc1`, the TGI with SW-620 colon is more than 100 µM; with SNB-19 CNS, more than 100 µM; in the assay on HT29 colon, more than 68.2 µM; in the assay with UACC-62 melanoma, 8.72 µM; in the assay on RXF 393 renal, more than 22.1 µM; in the assay on NCI-H226 lung it was more than 76.5 µM. Also, the TGI was more than 100 µM with EKVX NSCLC; more than 100 µM in the assay on U251 CNS; more than 87.6 µM with UACC-257 melanoma; more than 51.1 µM in the assay with HOP-62 NSCLC; more than 100 µM with CAKI-1 renal.

`CCN(CC)CCOCC1CCCN2CCCCC12` (stereo unspecified): the TGI in the assay on SW-620 colon, with SNB-19 CNS, with HT29 colon, with UACC-62 melanoma, in the assay on RXF 393 renal and in the assay with NCI-H226 lung was more than 100 µM throughout. The TGI in the assay with EKVX NSCLC, in the assay with U251 CNS, in the assay on UACC-257 melanoma, in the assay on HOP-62 NSCLC and in the assay on CAKI-1 renal was more than 100 µM in each case.

Turning to `C=CCCCCn1c2ccccc2c2c(C)c3c[n+](C)ccc3c(C)c21`, the TGI came to 1.34 µM in the assay with SW-620 colon; 1.73 µM with SNB-19 CNS; 1.75 µM with HT29 colon; 1.28 µM with UACC-62 melanoma; 2.11 µM in the assay on RXF 393 renal; 0.811 µM in the assay with DMS 114 small cell lung. Further, the TGI in the assay on U251 CNS worked out at 1.14 µM; in the assay with UACC-257 melanoma, 1.47 µM; in the assay on HOP-62 NSCLC, 1.94 µM; with DLD-1 colon it was 2.52 µM; with CAKI-1 renal, 39 µM.

Regarding `CCCC(=O)[O-].CCCC(=O)[O-].N.N.N.N.[Co+3].[O-][Cl+3]([O-])([O-])[O-]`, the TGI with SW-620 colon, with SNB-19 CNS, with HT29 colon, in the assay on UACC-62 melanoma, in the assay on EKVX NSCLC and in the assay with U251 CNS was more than 100 µM in each case. Moreover, the TGI in the assay on UACC-257 melanoma, with SNB-78 CNS, with HOP-62 NSCLC and in the assay with DLD-1 colon was more than 100 µM throughout. For the same compound, the GI50 in the assay with SNB-78 CNS and in the assay on DLD-1 colon was more than 100 µM each time.

`Clc1ccc2c(Cl)nc(-c3ccccc3)nc2c1`: the TGI with SW-620 colon was more than 100 µM; with SNB-19 CNS it was more than 100 µM; in the assay on HT29 colon it was more than 100 µM; in the assay with UACC-62 melanoma, more than 100 µM; in the assay on RXF 393 renal it was 71.2 µM; with DMS 114 small cell lung, 74 µM. The TGI in the assay on NCI-H226 lung is 55.9 µM; in the assay on EKVX NSCLC, 91.1 µM; in the assay with U251 CNS it was 35.1 µM; with UACC-257 melanoma it was more than 100 µM; with SNB-78 CNS, 91 µM; in the assay with HOP-62 NSCLC it was more than 100 µM. The TGI is more than 100 µM in the assay with DLD-1 colon and 97.3 µM in the assay with CAKI-1 renal.

As for `COc1cc(O)c2c(c1O)C(=O)c1cc(C)ncc1C2=O`, the TGI with SW-620 colon, with SNB-19 CNS, in the assay with HT29 colon, with UACC-62 melanoma, in the assay on RXF 393 renal and in the assay with DMS 114 small cell lung was more than 50 µM in each case. Also, the TGI with NCI-H226 lung is more than 50 µM; in the assay with EKVX NSCLC, more than 50 µM; in the assay with U251 CNS, 30.7 µM; in the assay on UACC-257 melanoma, 36.6 µM; with SNB-78 CNS, more than 50 µM; with HOP-62 NSCLC, more than 50 µM. In addition, the TGI with DLD-1 colon was more than 50 µM.

Regarding `OCCN1CCN(c2nc(Nc3ccc(-c4nc5ccccc5[nH]4)cc3)c3cn[nH]c3n2)CC1`, the GI50 is 0.464 µM in the assay on SW-620 colon, 1.43 µM in the assay with RXF 393 renal, 1.73 µM with EKVX NSCLC and 1.72 µM in the assay with CAKI-1 renal. The TGI with SW-620 colon came out at 1.87 µM; with RXF 393 renal, 2.85 µM; in the assay on EKVX NSCLC, 3.26 µM; with CAKI-1 renal it was 3.13 µM.

Consider `CCCCCCCSCC1OC(n2cnc3c(N)ncnc32)C(O)C1O` (stereo unspecified), for which the TGI with SW-620 colon was 46.5 µM; with SNB-19 CNS, more than 100 µM; in the assay on HT29 colon it was 4.51 µM; with RXF 393 renal it was more than 100 µM; with DMS 114 small cell lung it was 71.1 µM; with NCI-H226 lung, more than 100 µM. Moreover, the TGI in the assay on EKVX NSCLC is 56.2 µM; with U251 CNS it was more than 100 µM; in the assay on UACC-257 melanoma, 56.9 µM; in the assay on SNB-78 CNS, more than 100 µM; in the assay on DLD-1 colon, 28.7 µM; in the assay with CAKI-1 renal, 19.5 µM.

For the compound `Oc1c2c(c3c4c1N=CC=4CCN=3)C1(C=C(Br)C(O)C(Br)=C1)CCN2` (stereo unspecified), the TGI in the assay with SW-620 colon was 4.19 µM; in the assay with SNB-19 CNS, more than 34.8 µM; in the assay with HT29 colon, 2.15 µM; in the assay on UACC-62 melanoma it was 2.66 µM; in the assay on RXF 393 renal it was 7.57 µM; in the assay with DMS 114 small cell lung, 0.718 µM. Moreover, the TGI in the assay with NCI-H226 lung came to 9 µM; in the assay on EKVX NSCLC, 4.94 µM; with U251 CNS, 5.44 µM; with UACC-257 melanoma, 1.27 µM; with SNB-78 CNS, 10.4 µM; in the assay with HOP-62 NSCLC it was 33.4 µM. Further, the TGI with DLD-1 colon worked out at 3.95 µM; in the assay with CAKI-1 renal, 29.3 µM.

Turning to `Cc1n(-c2ccccc2)c2c([n+]1Cc1ccc([N+](=O)[O-])cc1)C(=O)c1ccccc1C2=O`, the TGI was determined as 6.63 µM in the assay on SW-620 colon; 3.22 µM in the assay on SNB-19 CNS; 6.43 µM in the assay on HT29 colon; 3.74 µM with UACC-62 melanoma; 21.5 µM in the assay with RXF 393 renal; 1.49 µM in the assay on DMS 114 small cell lung. Besides, the TGI with NCI-H226 lung turned out to be 15.1 µM; with EKVX NSCLC, 5.7 µM; in the assay on U251 CNS it was 3.35 µM; in the assay with UACC-257 melanoma, 3.16 µM; with SNB-78 CNS it was 6.88 µM; with HOP-62 NSCLC it was 16.6 µM. The TGI amounted to 19.4 µM with DLD-1 colon and 39.7 µM in the assay with CAKI-1 renal.

As to `Nc1nc(Sc2ccc([N+](=O)[O-])cn2)c2[nH]cnc2n1`, the TGI in the assay on SW-620 colon was more than 100 µM; in the assay on SNB-19 CNS, 72.1 µM; with HT29 colon, more than 74.3 µM; in the assay on UACC-62 melanoma, 11.6 µM; with RXF 393 renal it was more than 30.4 µM; in the assay with NCI-H226 lung, 57.3 µM. Further, the TGI in the assay with EKVX NSCLC was 50.2 µM; with U251 CNS it was more than 64.3 µM; in the assay on UACC-257 melanoma, more than 100 µM; in the assay on HOP-62 NSCLC it was more than 100 µM; with CAKI-1 renal, 71.7 µM.
